How the values were obtained:
[1] = test system: wildtype K. oxytoca ATCC 8724; experiment: Leupeptin detection in culture extracts by HPLC-QTOF-MS; format: cell-based, Klebsiella oxytoca; settings: added to cultivation medium
Method: 5 mL of the leupeptin reporter strain was cultured aerobically in 10 g/L of LB (Becton Dickinson), yeast extract, GAM (HiMedia Laboratories), horse liver extract (HiMedia Laboratories), malt extract (VWR), meat extract (HiMedia Laboratories), YPD (Dot Scienticifc), brain heart infusion (Becton Dickinson), porcine mucin (Sigma-Aldrich, M1778), clostridial (Becton Dickinson), TSB (VWR), or casamino acid supplemented (5 g/L, VWR) M9 minimal salts (MP Biomedicals) at 30 °C for 24 h at 250 rpm. Cultures were lysed via sonication, centrifuged, and 150 µL of the supernatants were aliquoted into black well clear bottom 96 well plates. GFP fluorescence measurements were performed on a BioTek Synergy H1 plate reader with an excitation wavelength of 488 nm and an emission wavelength of 525 nm. For the carbohydrate screen, the leupeptin reporter strain was cultured in M9 minimal medium (MPbio) supplemented with casamino acid (5 g/L, VWR) and 0.4% indicated sugar aerobically at 30 °C for 24 h at 250 rpm.
For MS-based determination of leupeptin activation, wildtype K. oxytoca ATCC 8724 was cultured in 5 mL of M9 minimal medium supplemented with 5 g/L casamino acids and 0.4% Neu5Ac. […] To measure the area under the curves for specific molecular features, the exact monoprotonated [M + H]^+ mass was calculated and extracted ion chromatographs (EICs) with a 10-ppm error were constructed. […]

[2] = test system: K. oxytoca; experiment: Culture growth (OD600) with sialic acid supplementation; format: cell-based, Klebsiella oxytoca; settings: M9+CAS with sialic acid, peer review file, not added to the study
Method: as 2 times the recorded value). Importantly, all cultures in this experiment grew. […]
supplemented cultures. All cultures had reached stationary phase after 24 hours. While Neu5Gc cultures did grow slower than Neu5Ac cultures, the term suppression was incorrect. Therefore, we deleted text around Neu5Gc suppression and have changed line 123 to now read: […]
the SI. The following growth analysis was not added to the study.
2. Fig3 describes the role of PLP-enzyme for the production of pyrazines (features 5-9). From
Fig.3a it is clear that features 5 and 7 are different from 6, 8, and 9. Are there functional differences between these 2 groups of compounds in terms of siderophore production? […]
complementation of the pyr mutant with feature 7 could induce siderophore production (Fig4).
What about the features from the other group (6, 8, and 9)?
To address this comment, we performed RNA-seq analysis feeding compound 6 and looked at regulated genes/operons. Similar to compound 7, compound 6 supplementation increased the […]
a table listing specific genes, is now included in the SI. As such, lines 345-348 now read: […]
compound also differentially regulated the transcriptome (201 genes with Padj < 0.05; abs(log2FC) > 1) and enhanced the transcription of genes related to iron acquisition and iron metabolism (Supplemental Information).”
(also on this page, place not known: value ). PLP -enzyme -9). […]

O=C(CO)N[C@H]1[C@H]([C@H](O)[C@H](O)CO)OC(O)(C(=O)O)C[C@@H]1O (some centres unmarked) [Neu5Gc, N-glycolneuraminic acid]
induction of leupeptin (1) production [1]: unable to induce the production of 1
culture growth [2]: grew about as fast as non-
